According to US20240299588A1, “NERVE LABEL” (UCL Business Ltd, priority 2021, published 2024):

Legend:
sciatic nerves [1] = assay: In vivo peripheral nerve labelling in rats, intravenous 5-ALA, fluorescence imaging of sciatic nerve; parameters: species or system Wistar rats
Description: (§1) Images were obtained 24 hours after 5-ALA administration. A: bright field, B: fluorescence image with false colour scale (highest intensity red/white) in rats injected with porphyrin prodrug, C: control rat without any drug injection. Images were obtained with a CCD camera following excitation at 405 nm using a light-emitting diode (LED) and red porphyrin fluorescence was recorded at 620-650 nm. Scale bar 5 mm.
(§2) 5-ALA was obtained from Sigma as an HCl salt in powder form, was stored inside a freezer. Before use, it was thawed, dissolved in a buffered aqueous solution at about pH 5, and then administered intravenously or orally.
(§3) To investigate the potential of a porphyrin prodrug for in vivo peripheral nerve labelling, Wistar rats (n>10 were injected intravenously with the porphyrin prodrug (5-aminolevulinic acid, 5-ALA), as shown in FIG. 1. At set time-points after the injection, the rats were sacrificed and the sciatic nerves and brachial plexus (near the armpit) and surrounding tissues (e.g. muscle, fat tissues) were exposed. The fluorescence image was recorded using a CCD camera.

brachial plexus = assay: In vivo peripheral nerve labelling in rats, intravenous 5-ALA, fluorescence imaging of brachial plexus; parameters: species or system Wistar rats
Description: (§4) Images were obtained 24 hours after 5-ALA administration using a CCD camera following excitation at 405 nm and porphyrin fluorescence was recorded at 620-650 nm. Scale bar 5 mm.
False colour scale, red/white corresponding to high intensity. BP: brachial plexus, ALN: axillary lymph node. (A): Fluorescence image of the brachial plexus 4 hours post-injection, and (B) the corresponding bright field image (C): Fluorescence image of the brachial nerve 24 hours post-injection. (D): Brachial plexus image in control rat without 5-ALA injection.
5-ALA was obtained from Sigma as an HCl salt in powder form, was stored inside a freezer. […]
as §3
Wistar rats were administered with 5-ALA intravenously at various concentrations including 100 mg/kg and 200 mg/kg. […] 5-ALA-induced fluorescence was also detected 4 hours after administration of 5-ALA.

sciatic nerve = assay: In vivo imaging of sciatic nerve in rat following oral administration of 5-ALA; parameters: species or system rats
Description: as §1, with “(A) Bright” for “A: bright”, “(B)” for “B:”, “administered” for “injected”, “5-ALA.” for “porphyrin prodrug, C: control rat without any drug injection.”, “nm.” for “nm. Scale bar 5 mm.”
as §2
A high fluorescence signal-to-background ratio (SBR) on the peripheral nerves was observed compared to adjacent tissues. […] The results were reproducible and were tested in 5 rats.

sciatic nerves [2] = assay: In vivo visualisation of sciatic nerves at various times following intravenous administration of 5-ALA; parameters: species or system Wistar rats
Description: as §4, §2
Wistar rats were administered with 5-ALA intravenously at various concentrations including 100 mg/kg and 200 mg/kg. In vivo visualisation of peripheral nerves such as sciatic nerves and brachial plexus were obtained at various post injection times ranging from 1 hours up to few weeks after administration of 5-ALA. […] 5-ALA-induced fluorescence was also detected 4 hours after administration of 5-ALA.

facial nerves = assay: In vivo visualisation of facial nerves following intravenous administration of 5-ALA; parameters: species or system Wistar rats; conditions: including 24 hours after administration
Description: Images were obtained 24 hours after 5-ALA administration. (A) fluorescence image (highest intensity white colour) in rats administered with 5-ALA, (B) Bright field, in rats administered with 5-ALA, (C) Bright field, in rats administered with 5-control, and (D) fluorescence image (highest intensity white colour) in rats administered with control. Images were obtained with a CCD camera following excitation at 405 nm using a light-emitting diode (LED) and red porphyrin fluorescence was recorded at 620-650 nm.
as §2
Wistar rats were administered with 5-ALA intravenously at different concentrations including 0 mg/kg (control), 100 mg/kg and 200 mg/kg. In vivo visualisation of facial nerves which are part of the cranial nerves were performed at various times including 24 hours after administration of 5-ALA. […] No fluorescence was detected in control rats (FIG. 8D).

[3] = sciatic nerve, intravenous injection, excitation 405 nm, fluorescence 620-650 nm, without optimisation of dose or time

## NCC(=O)CCC(=O)O [5-ALA, 5-aminolevulinic acid]
Sciatic nerves [1]; intravenous injection
  red porphyrin fluorescence in rat nerves: highly selective and localised
Sciatic nerves [1]; intravenous injection, fluorescence imaging
  diameter of small nerve branches that can be resolved: ~0.1 mm
Sciatic nerves [1]; [3]
  nerve to fat tissue ratio (fluorescence signal-to-background ratio): > 10
  nerve to muscle intensity ratio (fluorescence signal-to-background ratio): > 15
Sciatic nerves [1]; surrounding tissue (muscle, fat), then rapid decline to basal levels
  time at which porphyrin levels reach a peak in surrounding tissue: ~4 h
Brachial plexus; brachial plexus, compared with sciatic nerve time course
  time course of nerve fluorescence in other peripheral nerves: same results
Brachial plexus; intravenous injection
  brachial plexus labelling: brachial plexus labelling
Sciatic nerve; 24 hours after administration
  red porphyrin fluorescence in rat nerves: highly selective and localised
Sciatic nerve; tested in 5 rats
  fluorescence signal ratio versus adjacent tissues: comparable to the intravenous injection route
Sciatic nerves [2]; 2 weeks after administration
  fluorescence intensity in nerve: returned close to background levels
Sciatic nerves [2]; 4 weeks after administration
  fluorescence intensity in nerve: returned close to background levels
Sciatic nerves [2]; 4 hours after intravenous administration
  5-ALA-induced fluorescence (PpIX) in sciatic nerve: detected
Sciatic nerves [2]; 24 hours after intravenous administration
  5-ALA-induced fluorescence (PpIX) in sciatic nerve: bright and localised
Sciatic nerves [2]; 3 days after systemic administration
  visualisation of sciatic nerves: clearly visualised
Sciatic nerves [2]; 5 days after systemic administration
  visualisation of sciatic nerves: clearly visualised
Sciatic nerves [2]; peripheral nerves
  shortest time after contacting or administration at which peripheral nerves can be visualised: ≥ 1 h
  time that peripheral nerves retain high levels of fluorescence compared to background after administration: up to 7 days
Sciatic nerves [2]; peripheral nerves, PpIX cleared from adjacent tissues
  time after administration at which the highest SBR may be achieved: about 24 hours
Facial nerves
  5-ALA induced fluorescence (PpIX) in branches of facial nerves: bright and localised
